Test results from ChEMBL document CHEMBL1933046, “Synthesis and antibacterial activity of a novel series of acylides active against community acquired respiratory pathogens” (2012).
≈ marks a conversion by molar mass, not a printed value.

Tests used:
Assay type in all cases: functional
Moraxella catarrhalis = experiment: Antibacterial activity against Moraxella catarrhalis 8176 by NCCLS method
Streptococcus pneumoniae [1] = experiment: Antibacterial activity against Streptococcus pneumoniae 49619 by NCCLS method
Streptococcus pneumoniae [2] = experiment: Antibacterial activity against Streptococcus pneumoniae 994 expressing mef gene by NCCLS method
Streptococcus pyogenes = experiment: Antibacterial activity against Streptococcus pyogenes 19615 by NCCLS method
Streptococcus pneumoniae [3] = experiment: Antibacterial activity against Streptococcus pneumoniae 6303 by NCCLS method
Haemophilus influenzae = experiment: Antibacterial activity against Haemophilus influenzae 38 by NCCLS method
Streptococcus pneumoniae [4] = experiment: Antibacterial activity against Streptococcus pneumoniae 3579 expressing erm gene by NCCLS method

SMILES	MIC (Moraxella catarrhalis)	MIC (Streptococcus pneumoniae [1])	MIC (Streptococcus pneumoniae [2])	MIC (Streptococcus pyogenes)	MIC (Streptococcus pneumoniae [3])	MIC (Haemophilus influenzae)	MIC (Streptococcus pneumoniae [4])
C=CCN(C)[C@H]1C[C@@H](C)O[C@@H](O[C@@H]2[C@@H](C)[C@H](OC(=O)Cc3ccccn3)[C@@H](C)C(=O)O[C@H](CC)[C@@]3(C)OC(=O)N(CCCCn4cnc5cccnc54)[C@@H]3[C@@H](C)C(=O)[C@H](C)C[C@@]2(C)OC)[C@@H]1O	0.125 µg/mL (≈ 0.134 µM)	0.06 µg/mL (≈ 0.0643 µM)	0.5 µg/mL (≈ 0.536 µM)	0.125 µg/mL (≈ 0.134 µM)	0.125 µg/mL (≈ 0.134 µM)	< 0.06 µg/mL	0.5 µg/mL (≈ 0.536 µM)
C=CCN(C)[C@H]1C[C@@H](C)O[C@@H](O[C@@H]2[C@@H](C)[C@H](OC(=O)Cc3cccnc3)[C@@H](C)C(=O)O[C@H](CC)[C@@]3(C)OC(=O)N(CCCCn4ccc5cccnc54)[C@@H]3[C@@H](C)C(=O)[C@H](C)C[C@@]2(C)OC)[C@@H]1O	0.06 µg/mL (≈ 0.0644 µM)	0.06 µg/mL (≈ 0.0644 µM)	0.25 µg/mL (≈ 0.268 µM)	0.03 µg/mL (≈ 0.0322 µM)	0.06 µg/mL (≈ 0.0644 µM)	< 0.03 µg/mL	8 µg/mL (≈ 8.58 µM)
CC[C@H]1OC(=O)[C@H](C)[C@@H](OC(=O)Cc2cccnc2)[C@H](C)[C@@H](O[C@@H]2O[C@H](C)C[C@H](N(C)CC)[C@H]2O)[C@](C)(OC)C[C@@H](C)C(=O)[C@H](C)[C@H]2N(CCCCn3cnc4ncccc43)C(=O)O[C@]12C	0.25 µg/mL (≈ 0.271 µM)	0.03 µg/mL (≈ 0.0326 µM)	0.25 µg/mL (≈ 0.271 µM)	0.03 µg/mL (≈ 0.0326 µM)	0.06 µg/mL (≈ 0.0651 µM)	< 0.03 µg/mL	2 µg/mL (≈ 2.17 µM)
C=CCN(C)[C@H]1C[C@@H](C)O[C@@H](O[C@@H]2[C@@H](C)[C@H](OC(=O)Cc3ccccn3)[C@@H](C)C(=O)O[C@H](CC)[C@@]3(C)OC(=O)N(CCCCn4cnc(-c5cccnc5)c4)[C@@H]3[C@@H](C)C(=O)[C@H](C)C[C@@]2(C)OC)[C@@H]1O	0.125 µg/mL (≈ 0.13 µM)	0.008 µg/mL (≈ 0.00834 µM)	0.125 µg/mL (≈ 0.13 µM)	0.008 µg/mL (≈ 0.00834 µM)	0.015 µg/mL (≈ 0.0156 µM)	0.125 µg/mL (≈ 0.13 µM)	0.25 µg/mL (≈ 0.261 µM)
C=CCN(C)[C@H]1C[C@@H](C)O[C@@H](O[C@@H]2[C@@H](C)[C@H](OC(=O)Cc3ccccn3)[C@@H](C)C(=O)O[C@H](CC)[C@@]3(C)OC(=O)N(CCCCn4cnc5cncnc54)[C@@H]3[C@@H](C)C(=O)[C@H](C)C[C@@]2(C)OC)[C@@H]1O	0.125 µg/mL (≈ 0.134 µM)	0.06 µg/mL (≈ 0.0642 µM)	0.125 µg/mL (≈ 0.134 µM)	0.06 µg/mL (≈ 0.0642 µM)	0.06 µg/mL (≈ 0.0642 µM)	< 0.06 µg/mL	0.25 µg/mL (≈ 0.268 µM)
C=CCN(C)[C@H]1C[C@@H](C)O[C@@H](O[C@@H]2[C@@H](C)[C@H](OC(=O)Cc3ccccn3)[C@@H](C)C(=O)O[C@H](CC)[C@@]3(C)OC(=O)N(CCCCn4cnc5ccncc54)[C@@H]3[C@@H](C)C(=O)[C@H](C)C[C@@]2(C)OC)[C@@H]1O	0.06 µg/mL (≈ 0.0643 µM)	0.125 µg/mL (≈ 0.134 µM)	0.125 µg/mL (≈ 0.134 µM)	0.125 µg/mL (≈ 0.134 µM)	0.125 µg/mL (≈ 0.134 µM)	0.06 µg/mL (≈ 0.0643 µM)	0.25 µg/mL (≈ 0.268 µM)
CC[C@H]1OC(=O)[C@H](C)[C@@H](OC(=O)Cc2ccccn2)[C@H](C)[C@@H](O[C@@H]2O[C@H](C)C[C@H](N(C)CC)[C@H]2O)[C@](C)(OC)C[C@@H](C)C(=O)[C@H](C)[C@H]2N(CCCCn3cnc4ncccc43)C(=O)O[C@]12C	0.125 µg/mL (≈ 0.136 µM)	0.015 µg/mL (≈ 0.0163 µM)	0.25 µg/mL (≈ 0.271 µM)	0.03 µg/mL (≈ 0.0326 µM)	0.06 µg/mL (≈ 0.0651 µM)	0.06 µg/mL (≈ 0.0651 µM)	0.25 µg/mL (≈ 0.271 µM)
CC[C@H]1OC(=O)[C@H](C)[C@@H](O[C@H]2C[C@@](C)(OC)[C@@H](O)[C@H](C)O2)[C@H](C)[C@@H](O[C@@H]2O[C@H](C)C[C@H](N(C)C)[C@H]2O)[C@](C)(O)C[C@@H](C)CN(C)[C@H](C)[C@@H](O)[C@]1(C)O [AZITHROMYCIN]	16 µg/mL (≈ 21.4 µM)	0.25 µg/mL (≈ 0.334 µM)	1 µg/mL (≈ 1.34 µM)	0.25 µg/mL (≈ 0.334 µM)	0.25 µg/mL (≈ 0.334 µM)	> 16 µg/mL	16 µg/mL (≈ 21.4 µM)
CC[C@H]1OC(=O)[C@H](C)[C@@H](OC(=O)Cc2ccccn2)[C@H](C)[C@@H](O[C@@H]2O[C@H](C)C[C@H](N(C)CC)[C@H]2O)[C@](C)(OC)C[C@@H](C)C(=O)[C@H](C)[C@H]2N(CCCCn3cnc(-c4ccc(N)nc4)c3)C(=O)O[C@]12C	0.25 µg/mL (≈ 0.26 µM)	0.06 µg/mL (≈ 0.0624 µM)	0.125 µg/mL (≈ 0.13 µM)	0.06 µg/mL (≈ 0.0624 µM)	0.06 µg/mL (≈ 0.0624 µM)	0.125 µg/mL (≈ 0.13 µM)	0.25 µg/mL (≈ 0.26 µM)
C=CCN(C)[C@H]1C[C@@H](C)O[C@@H](O[C@@H]2[C@@H](C)[C@H](OC(=O)Cc3ccccn3)[C@@H](C)C(=O)O[C@H](CC)[C@@]3(C)OC(=O)N[C@@H]3[C@@H](C)C(=O)[C@H](C)C[C@@]2(C)OC)[C@@H]1O	1 µg/mL (≈ 1.32 µM)	0.015 µg/mL (≈ 0.0197 µM)	0.125 µg/mL (≈ 0.164 µM)	0.015 µg/mL (≈ 0.0197 µM)	0.125 µg/mL (≈ 0.164 µM)		8 µg/mL (≈ 10.5 µM)
C=CCN(C)[C@H]1C[C@@H](C)O[C@@H](O[C@@H]2[C@@H](C)[C@H](OC(=O)Cc3ccccn3)[C@@H](C)C(=O)O[C@H](CC)[C@@]3(C)OC(=O)N(CCCCn4cnc(-c5cccc(N)c5)c4)[C@@H]3[C@@H](C)C(=O)[C@H](C)C[C@@]2(C)OC)[C@@H]1O	0.125 µg/mL (≈ 0.128 µM)	0.03 µg/mL (≈ 0.0308 µM)	0.06 µg/mL (≈ 0.0617 µM)	0.03 µg/mL (≈ 0.0308 µM)	0.03 µg/mL (≈ 0.0308 µM)	< 0.06 µg/mL	0.125 µg/mL (≈ 0.128 µM)
C=CCN(C)[C@H]1C[C@@H](C)O[C@@H](O[C@@H]2[C@@H](C)[C@H](OC(=O)Cc3cccnc3)[C@@H](C)C(=O)O[C@H](CC)[C@@]3(C)OC(=O)N(CCCCn4cnc(-c5ccc(N)nc5)c4)[C@@H]3[C@@H](C)C(=O)[C@H](C)C[C@@]2(C)OC)[C@@H]1O	0.125 µg/mL (≈ 0.128 µM)	0.125 µg/mL (≈ 0.128 µM)	0.06 µg/mL (≈ 0.0616 µM)	0.06 µg/mL (≈ 0.0616 µM)	0.06 µg/mL (≈ 0.0616 µM)	0.125 µg/mL (≈ 0.128 µM)	0.125 µg/mL (≈ 0.128 µM)
C=CCN(C)[C@H]1C[C@@H](C)O[C@@H](O[C@@H]2[C@@H](C)[C@H](OC(=O)Cc3cccnc3)[C@@H](C)C(=O)O[C@H](CC)[C@@]3(C)OC(=O)N(CCCCn4cnc(-c5cccnc5)c4)[C@@H]3[C@@H](C)C(=O)[C@H](C)C[C@@]2(C)OC)[C@@H]1O	0.25 µg/mL (≈ 0.261 µM)	0.03 µg/mL (≈ 0.0313 µM)	0.125 µg/mL (≈ 0.13 µM)	0.06 µg/mL (≈ 0.0626 µM)	0.03 µg/mL (≈ 0.0313 µM)	0.125 µg/mL (≈ 0.13 µM)	1 µg/mL (≈ 1.04 µM)
